Experimental findings from patent US8076352B2, “Administration of carboline derivatives useful in the treatment of cancer and other diseases” (PTC Therapeutics, Inc., priority 2004, dated 2011) are described below.

In general, EC50 refers to the midpoint of the concentration-response curve.

Each structure is given as a SMILES string. A value given as a limit tells only on which side of the number the result lay.

In one test the test system is hypoxia-inducible endogenous VEGF expression in HeLa cells. The test is described as follows: Hypoxia-inducible endogenous VEGF expression, VEGF ELISA of conditioned media (dose-response EC50). It is filed as cell-based. Conditions: HeLa cells under hypoxic conditions. The procedure, abridged:
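Secreted VEGF was quantified by ELISA against a per-assay standard curve after HeLa cells spent 24-48 h in 1% O2, 5% CO2, N2 balance with or without compound. Across a series of, e.g., seven concentrations, percentage inhibition (max 100%, min 0%) gave EC50 and CC50 values.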
(ELISA stands for enzyme-linked immunosorbent assay.)
`Clc1ccc2[nH]c3c(c2c1)CCN(Cc1ccccc1)C3C1CCOC1` (stereo not shown) [Compound 264]: the 50% effective concentration (EC50) is more than 1 µM.
In turn, `Clc1ccc2[nH]c3c(c2c1)CCN(Cc1ccco1)C3c1ccco1` (stereo not shown) [Compound 265] displayed a half-maximal effective concentration (EC50) of more than 1 µM.

Staying with this test, now noted: Homo sapiens, HeLa cells under hypoxic conditions.
For `COCCOCC(=O)N1CCc2c([nH]c3ccc(Br)cc23)C1c1ccc(C)cc1` (stereo not shown) [Compound 258], the 50% effective concentration (EC50) was more than 1 µM.
Consider `COCCOCC(=O)N1CCc2c([nH]c3ccc(Br)cc23)C1c1cccc(Cl)c1` (stereo not shown) [Compound 259], for which the concentration giving a half-maximal response (EC50) was more than 1 µM.
Take `Clc1ccc2[nH]c3c(c2c1)CCN(Cc1ccccc1)C3c1nccs1` (stereo not shown) [Compound 262]: the EC50 is more than 1 µM.
Same read-out and setting: the result for `CC(C)(C)c1cc(C2c3[nH]c4ccc(Cl)cc4c3CCN2Cc2ccccc2)cc(C(C)(C)C)c1O` (stereo not shown) [Compound 263] reads more than 1 µM.
In turn, `Clc1ccc2[nH]c3c(c2c1)CCN(Cc1ccco1)C3c1nccs1` (stereo not shown) [Compound 267] gave an EC50 of more than 1 µM.
Same read-out and setting: the result for `Clc1ccc2[nH]c3c(c2c1)CCN(Cc1ccoc1)C3c1ccco1` (stereo not shown) [Compound 268] reads more than 1 µM; that for `Clc1ccc2[nH]c3c(c2c1)CCN(Cc1ccoc1)C3c1nccs1` (stereo not shown) [Compound 270], more than 1 µM; that for `Clc1ccc2[nH]c3c(c2c1)CCN(Cc1ccoc1)C3C1CCCCC1` (stereo not shown) [Compound 271], more than 1 µM.
In turn, `Clc1ccc2[nH]c3c(c2c1)CCN(Cc1ccccc1)C3c1ccncc1` (stereo not shown) [Compound 272] showed a 50% effective concentration (EC50) of more than 1 µM.
Still for that read-out and setting: for `Clc1ccc2[nH]c3c(c2c1)CCN(Cc1ccccc1)C3c1c[nH]c2ccc(Br)cc12` (stereo not shown) [Compound 273] the value was more than 1 µM; for `Clc1ccc2[nH]c3c(c2c1)CCN(Cc1ccccc1)C3c1cc2c(cc1Cl)OCO2` (stereo not shown) [Compound 274], more than 1 µM.
As to `Clc1ccc2[nH]c3c(c2c1)CCN(Cc1ccccc1)C3c1ccccn1` (stereo not shown) [Compound 275], the concentration for a half-maximal effect (EC50) was more than 1 µM.
On to `Clc1ccc2[nH]c3c(c2c1)CCN(Cc1ccccc1)C3c1cccnc1` (stereo not shown) [Compound 276], for which the EC50 was more than 1 µM.
`Clc1ccc2[nH]c3c(c2c1)CCNC3c1ccc(-n2ccnc2)cc1` (stereo not shown) [Compound 277]: the half-maximal effective concentration (EC50) was more than 1 µM.
For `CCOC(=O)N1CCc2c([nH]c3ccc(OCc4ccccc4)cc23)C1c1ccc(OC)cc1` (stereo not shown) [Compound 278], the EC50 was more than 1 µM.
On the same count and under the same terms, for `CCOC(=O)N1CCc2c([nH]c3ccc(Cl)cc23)C1c1ccc(OCCN2CCOCC2)cc1` (stereo not shown) [Compound 279, 6-Chloro-1-[4-(2-morpholin-4-yl-ethoxy)-phenyl]-1,3,4,9-tetrahydro-b-carboline-2-carboxylic acid ethyl ester] the value was less than 0.008 µM; for `COc1ccc(C2c3[nH]c4ccc(F)cc4c3CCN2C(=O)NC2CCCCC2)cc1` (stereo not shown) [Compound 283], more than 1 µM.
With `CCOC(=O)N1CCc2c([nH]c3ccc(F)cc23)C1c1cccc(Cl)c1` (stereo not shown) [Compound 284], the EC50 was more than 1 µM.
Still for that read-out and setting: for `COc1ccc2[nH]c3c(c2c1)CCNC3c1ccc(OCc2ccccc2)cc1` (stereo not shown) [Compound 285] the value was more than 1 µM; for `Cc1cccc(C2NCCc3c2[nH]c2ccc(Cl)cc32)c1` (stereo not shown) [Compound 286], more than 1 µM.
Still for that read-out and setting: the result for `Clc1ccc2[nH]c3c(c2c1)CCNC3C1CCCCC1` (stereo not shown) [Compound 287] reads more than 1 µM; that for `c1ccc(COc2ccc(C3NCCc4c3[nH]c3ccc(OCc5ccccc5)cc43)cc2)cc1` (stereo not shown) [Compound 288], more than 1 µM.
`COc1ccc(C2c3[nH]c4ccccc4c3CCN2C(=S)NC(C)C)cc1` (stereo not shown) [Compound 289] had a 50% effective concentration (EC50) of more than 1 µM.
`COCCNC(=S)N1CCc2c([nH]c3ccccc23)C1c1ccc(OC)cc1` (stereo not shown) [Compound 290] displayed an EC50 of more than 1 µM.
On the same count and under the same terms, for `Oc1cccc(C2NCCc3c2[nH]c2ccc(Cl)cc32)c1` (stereo not shown) [Compound 291] the value was more than 1 µM; for `COc1ccc(C2NCCc3c2[nH]c2ccc(OCc4ccccc4)cc32)cc1` (stereo not shown) [Compound 292], more than 1 µM.
`COC(=O)N1CCc2c([nH]c3ccc(OCc4ccccc4)cc23)C1c1ccccc1` (stereo not shown) [Compound 293]: the EC50 is more than 1 µM.
With `CC(=O)Nc1ccc(C2NCCc3c2[nH]c2ccc(Cl)cc32)cc1` (stereo not shown) [Compound 294], the concentration for a half-maximal effect (EC50) was more than 1 µM.
The same measure, in the same setting: the result for `COc1ccc(C2c3[nH]c4ccccc4c3CCN2C(=O)NC2CCCCC2)cc1` (stereo not shown) [Compound 295] reads more than 1 µM; that for `Oc1ccc(C2NCCc3c2[nH]c2ccc(Cl)cc32)cc1` (stereo not shown) [Compound 296], more than 1 µM; that for `CN(C)c1ccc(C2NCCc3c2[nH]c2ccc(Cl)cc32)cc1` (stereo not shown) [Compound 297], more than 1 µM.
In turn, `CCC1NCCc2c1[nH]c1ccc(Cl)cc21` (stereo not shown) [Compound 298] displayed a concentration for a half-maximal effect (EC50) of more than 1 µM.
On to `FC(F)(F)c1cccc(C2NCCc3c2[nH]c2ccc(Cl)cc32)c1` (stereo not shown) [Compound 299], for which the EC50 was more than 1 µM.
Consider `COc1ccc(C2NC(C(=O)O)Cc3c2[nH]c2ccc(Br)cc32)cc1` (stereo not shown) [Compound 300], for which the EC50 was more than 1 µM.
Take `COc1ccccc1C1NCCc2c1[nH]c1ccc(Cl)cc21` (stereo not shown) [Compound 301]: the EC50 was more than 1 µM.
Molecule `COc1ccc(C2c3[nH]c4ccccc4c3CCN2C(=O)Nc2ccccc2)cc1` (stereo not shown) [Compound 302] registered an EC50 of more than 1 µM.
On to `c1ccc(COc2ccc3[nH]c4c(c3c2)CCNC4c2ccccc2)cc1` (stereo not shown) [Compound 303], for which the concentration giving a half-maximal response (EC50) was more than 1 µM.
Still for that read-out and setting: for `COc1ccc(C2c3[nH]c4ccccc4c3CCN2C(=O)Nc2ccc(C(C)C)cc2)cc1` (stereo not shown) [Compound 304] the value was more than 1 µM; for `Cc1cccc2c3c([nH]c12)C(c1cccc(Br)c1)NCC3` (stereo not shown) [Compound 305], more than 1 µM.
As for `COc1ccc(C2c3[nH]c4ccccc4c3CCN2C(=O)NC(C)C)cc1` (stereo not shown) [Compound 306], the EC50 is more than 1 µM.
Regarding `CCNC(=O)N1CCc2c([nH]c3ccccc23)C1c1ccc(OC)cc1` (stereo not shown) [Compound 307], the concentration for a half-maximal effect (EC50) was more than 1 µM.
Regarding `COc1ccc(C2c3[nH]c4ccccc4c3CCN2C(=S)Nc2cccc(F)c2)cc1` (stereo not shown) [Compound 308], the EC50 was more than 1 µM.
Still for that read-out and setting: for `CS(=O)(=O)c1ccc(C2c3[nH]c4ccc(Cl)cc4c3CCN2C(=O)N2CCOCC2)cc1` (stereo not shown) [Compound 309] the value was 0.008 to 0.04 µM; for `Clc1ccc2[nH]c3c(c2c1)CCNC3c1cccs1` (stereo not shown) [Compound 310], more than 1 µM.
As for `c1ccc(COc2ccc3[nH]c4c(c3c2)CCNC4c2ccoc2)cc1` (stereo not shown) [Compound 311], the concentration giving a half-maximal response (EC50) was more than 1 µM.
`COc1ccc(C2c3[nH]c4ccccc4c3CCN2C(=S)NC2CCCCC2)cc1` (stereo not shown) [Compound 312]: the EC50 was more than 1 µM.
In the case of `COc1ccc(C2NCCc3c2[nH]c2ccccc32)cc1` (stereo not shown) [Compound 313], the EC50 is more than 1 µM.
As for `O=C(O)C1Cc2c([nH]c3ccccc23)C(c2ccccc2)N1` (stereo not shown) [Compound 314], the concentration giving a half-maximal response (EC50) was more than 1 µM.
`COc1ccc(C2NCCc3c2[nH]c2ccc(F)cc32)cc1` (stereo not shown) [Compound 315] registered an EC50 of more than 1 µM.
`COC(=O)c1cccc(NC(=S)N2CCc3c([nH]c4ccccc34)C2c2ccc(OC)cc2)c1` (stereo not shown) [Compound 316] registered a 50% effective concentration (EC50) of more than 1 µM.
The molecule `COc1ccc(C2c3[nH]c4ccccc4c3CCN2C(=S)Nc2ccc(C)cc2)cc1` (stereo not shown) [Compound 317] registered an EC50 of more than 1 µM.
Molecule `COc1cccc(C2NC(CO)Cc3c2[nH]c2ccccc32)c1` (stereo not shown) [Compound 318] displayed an EC50 of more than 1 µM.
The same measure, in the same setting: the result for `Clc1ccc2[nH]c3c(c2c1)CCNC3c1cccnc1` (stereo not shown) [Compound 319] reads more than 1 µM.
With `c1ccc(COc2ccc3[nH]c4c(c3c2)CCNC4c2cccnc2)cc1` (stereo not shown) [Compound 320], the EC50 was more than 1 µM.
Regarding `COc1ccc2c3c([nH]c2c1)C(c1ccccc1)NCC3` (stereo not shown) [Compound 321], the EC50 is more than 1 µM.
Turning to `COc1ccc2[nH]c3c(c2c1)CCNC3c1ccccc1` (stereo not shown) [Compound 322], the EC50 is more than 1 µM.
In turn, `COc1ccc(C2NCCc3c2[nH]c2ccc(OC)cc32)cc1` (stereo not shown) [Compound 323] gave an EC50 of more than 1 µM.
As for `COc1ccc2[nH]c3c(c2c1)CCNC3c1cccnc1` (stereo not shown) [Compound 324], the EC50 is more than 1 µM.
`Cc1cccc2c3c([nH]c12)C(c1ccccc1)NCC3` (stereo not shown) [Compound 326] gave a half-maximal effective concentration (EC50) of more than 1 µM.
The molecule `COc1ccc(C2NCCc3c2[nH]c2ccc(Cl)cc32)cc1OC` (stereo not shown) [Compound 327] returned a concentration giving a half-maximal response (EC50) of more than 1 µM.
Molecule `Clc1ccc2[nH]c3c(c2c1)CCN(c1ncccn1)C3c1ccc2c(c1)OCO2` (stereo not shown) [Compound 328] returned an EC50 of more than 1 µM.
`COc1ccc(C2c3[nH]c4ccc(Br)cc4c3CCN2c2ncccn2)cc1` (stereo not shown) [Compound 329] returned an EC50 of more than 1 µM.
The molecule `CC(C)c1ccc(C2c3[nH]c4ccc(Cl)cc4c3CCN2C(=O)OCCF)cc1` (stereo not shown) [Compound 330] came in with an EC50 of more than 1 µM.
`O=C(Oc1ccc(Cl)cc1)N1CCc2c([nH]c3ccc(Cl)cc23)C1c1ccc(OCCN2CCOCC2)cc1` (stereo not shown) [Compound 331] yielded an EC50 of more than 1 µM.
`COc1ccc(C2c3[nH]c4ccc(Cl)cc4c3CCN2C(=O)N2CCCC2)cc1` (stereo not shown) [Compound 333] showed an EC50 of 0.2 to 1 µM.
Same read-out and setting: the result for `COc1ccc(C2c3[nH]c4ccc(Cl)cc4c3CCN2C(=O)N2CCOCC2)cc1` (stereo not shown) [Compound 334] reads more than 1 µM; that for `CC(C)c1ccc(C2c3[nH]c4ccc(Cl)cc4c3CCN2C(=S)NC2CCCCC2)cc1` (stereo not shown) [Compound 335], 0.04 to 0.2 µM; that for `CCC(C)NC(=S)N1CCc2c([nH]c3ccc(Cl)cc23)C1c1ccc(C(C)C)cc1` (stereo not shown) [Compound 336], 0.2 to 1 µM.
As to `CCCCCNC(=S)N1CCc2c([nH]c3ccc(Cl)cc23)C1c1ccc(C(C)C)cc1` (stereo not shown) [Compound 337], the half-maximal effective concentration (EC50) fell in the range of 0.04 to 0.2 µM.
Regarding `Cc1ccc(NC(=S)N2CCc3c([nH]c4ccc(Cl)cc34)C2c2ccc(C(C)C)cc2)cc1` (stereo not shown) [Compound 338], the EC50 lay in the range of 0.2 to 1 µM.
Regarding `CCN(CC)C(=O)N1CCc2c([nH]c3ccc(Cl)cc23)C1c1ccc(OC)cc1` (stereo not shown) [Compound 339], the EC50 was more than 1 µM.
Turning to `COc1ccc(C2c3[nH]c4ccc(Cl)cc4c3CCN2C(=O)N(C)c2ccccc2)cc1` (stereo not shown) [Compound 340], the 50% effective concentration (EC50) is more than 1 µM.
`COc1ccc(C2c3[nH]c4ccc(C)cc4c3CCN2C(=O)Oc2ccc(Cl)cc2)cc1` (stereo not shown) [Compound 341] came in with an EC50 of 0.04 to 0.2 µM.
With `COc1ccc(C2c3[nH]c4ccc(C)cc4c3CCN2c2ncccn2)cc1` (stereo not shown) [Compound 342], the EC50 was 0.04 to 0.2 µM.
